Where two headings read alike, the source gives them in different places.
What was measured:
human mGluR5 = human mGluR5 (Homo sapiens, UniProt P41594); assay: Cell-based functional Ca2+ mobilization assay (FDSS), potentiation of glutamate EC20 response
Description: Human mGluR5a cDNA in pCMV6-XL6 mammalian expression plasmid was purchased from OriGene Technologies, Inc. (catalogue number SC326357) and subcloned into pcDNA3.1(-). Human embryonic kidney (HEK)293A cells were then transfected with human mGluR5a pcDNA3.1(-) using LipofectAmine-2000 (Invitrogen) and monoclones were selected and tested for functional response using a Ca^2+ mobilization assay. Monoclones were named for the species (“H” for human) plus the location on the plate (e.g. “10H”). […] Cell-lines used were either the H10H or […] cell-lines expressing the human mGluR5 receptor. The following day, the growth medium was removed and the cells were washed with assay buffer containing 1× Hank's balanced salt solution (Invitrogen, Carlsbad, Calif.), 20 mM HEPES, 2.5 mM probenecid, pH 7.4 and left with 20 μL of this reagent. Following this step, the cells were loaded with calcium indicator dye, fluo-4 AM, to a final concentration of 2 μM and incubated for 40-45 min at 37° C. The dye solution was removed and replaced with assay buffer. Cell plates were held for 10-15 min at room temperature and were then loaded into the Functional Drug Screening System 6000 (FDSS 6000, Hamamatsu, Japan). […] Calcium fluorescence measures were recorded as fold over basal fluorescence; raw data was then normalized to the maximal response to glutamate. […] The concentration-response curves of compounds of the present invention, obtained in the presence of EC20 of mGluR5 receptor agonist glutamate to determine positive allosteric modulation, were generated using Microsoft Excel with IDBS XLfit add-ins. The raw data file containing all time points was used as the data source in the analysis template. This was saved by the FDSS as a tab-delimited text file. Data were normalized using a static ratio function (F/F0) for each measurement of the total 350 values per well divided by each well's initial value. […] This is sufficient time to capture the peak amplitude of the cellular Calcium response. […] Each of the three values collected at each concentration of test compound were weighted evenly. Individual values falling outside the 95% prediction limits of the curve fit were automatically excluded from the fit. […] These two methods are in good agreement for curves with a clear plateau at the high concentration range. […] For consistency purposes across the range of potencies observed, all EMax values reported in this application are calculated using the maximum average response at a single concentration. The % EMax value for each compound reported in this application is defined as the maximum % effect obtained in a concentration-response curve of that compound expressed as a percent of the response of a maximally effect concentration of glutamate. […] Table IV below lists specific compounds as well as experimentally determined mGluR5 activity determined in a cell-based. The mGluR5 activity was determined using the metabotropic glutamate receptor activity assays in human embryonic kidney cells as described herein, wherein the human embryonic kidney cells were transfected with human mGluR5. The data in Table III were obtained using the H10H cell-line which expresses recombinant human mGluR5. The compound number corresponds to the compound numbers used in Table I.

[1] = system: amphetamine-induced hyperlocomotion; assay: Reversal of amphetamine-induced hyperlocomotion in rat; type: in vivo; details: male Sprague-Dawley rats; compound p.o.; amphetamine 1 mg/kg s.c.
Experimental: The study was carried out using male Sprague-Dawley rats weighing 225 g-275 g, between 2-3 months old (Harlan, Inc., Indianapolis, Ind.). They were kept in the animal care facility certified by the American Association for the Accreditation of Laboratory Animal Care (AALAC) under a 12-hour light/dark cycle (lights on: 6 a.m.; lights off: 6 p.m.) and had free access to food and water. The experimental protocols performed during the light cycle were approved by the Institutional Animals Care and Use Committee of Vanderbilt University and conformed to the guidelines established by the National Research Council Guide for the Care and Use of Laboratory Animals.
Locomotor activity was assessed as mean distance traveled (cm) in Smart Open Field locomotor activity test chambers (Hamilton-Kinder, San Diego, Calif.) with 16×16 photobeams with chambers measuring 43.2 cm (Length)×43.2 cm (Width)×30.5 cm (Height) (Med Associates, St. Albans, Vt.). […] At 60 min, all rats were injected subcutaneously with 1 mg/kg amphetamine or vehicle and then monitored for an additional 60 min. Animals are monitored for a total of 120 minutes.
Data are expressed as the mean (±SEM) distance traveled recorded in 5 min intervals over the test period. The data was analyzed using repeated measures analysis of variance (ANOVA) followed by post-hoc testing using Dunnett's test, when appropriate. […]

[2] = H10H cell-line, maximum % effect as percent of response to maximally effective glutamate, glutamate EC20 present, read-out: Emax (%)
[3] = H10H cell-line, potentiation in presence of glutamate EC20

Chain of human mGluR5 (P41594 21-1180 isoform P41594-2 limits assumed): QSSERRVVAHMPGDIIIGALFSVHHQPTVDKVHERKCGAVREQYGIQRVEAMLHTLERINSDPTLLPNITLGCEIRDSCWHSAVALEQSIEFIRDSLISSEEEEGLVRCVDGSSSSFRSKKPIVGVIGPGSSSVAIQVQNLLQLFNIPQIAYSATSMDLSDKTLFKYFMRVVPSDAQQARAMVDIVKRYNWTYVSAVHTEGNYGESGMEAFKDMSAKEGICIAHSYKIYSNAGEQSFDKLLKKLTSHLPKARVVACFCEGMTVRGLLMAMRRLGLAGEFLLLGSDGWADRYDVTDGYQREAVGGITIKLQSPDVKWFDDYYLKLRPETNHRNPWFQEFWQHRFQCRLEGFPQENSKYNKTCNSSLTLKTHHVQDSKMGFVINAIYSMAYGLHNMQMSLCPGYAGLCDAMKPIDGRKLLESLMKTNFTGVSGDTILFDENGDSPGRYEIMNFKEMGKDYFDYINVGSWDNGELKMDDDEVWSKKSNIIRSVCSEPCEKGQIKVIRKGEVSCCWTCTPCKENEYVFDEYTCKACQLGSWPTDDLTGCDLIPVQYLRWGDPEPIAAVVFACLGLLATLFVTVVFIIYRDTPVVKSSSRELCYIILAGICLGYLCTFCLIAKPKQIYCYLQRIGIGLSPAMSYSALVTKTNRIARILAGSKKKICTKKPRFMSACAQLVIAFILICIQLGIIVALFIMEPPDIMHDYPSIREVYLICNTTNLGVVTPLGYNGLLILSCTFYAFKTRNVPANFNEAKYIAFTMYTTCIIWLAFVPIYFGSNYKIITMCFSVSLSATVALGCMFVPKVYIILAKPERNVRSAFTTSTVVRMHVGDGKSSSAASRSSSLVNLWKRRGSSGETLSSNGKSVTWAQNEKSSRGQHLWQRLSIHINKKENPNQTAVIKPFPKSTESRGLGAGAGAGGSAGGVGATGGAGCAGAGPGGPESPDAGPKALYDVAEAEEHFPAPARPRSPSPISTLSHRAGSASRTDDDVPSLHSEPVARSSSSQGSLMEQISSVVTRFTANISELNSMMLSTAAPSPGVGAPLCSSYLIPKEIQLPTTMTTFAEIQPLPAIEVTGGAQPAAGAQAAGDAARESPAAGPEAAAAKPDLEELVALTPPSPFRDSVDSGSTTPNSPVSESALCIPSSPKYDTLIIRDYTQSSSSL

Row | SMILES | Emax (human mGluR5; [2]) [%] | EC50 (human mGluR5; [3]) [µM] | other results
1 | CC1(CN2CCn3nc(COc4ccccc4)cc3C2=O)COC1 [Compound 31] | 71 | 1.1 | –
2 | O=C1c2cc(COc3ccccc3)nn2CCN1C1CCOC1 (racemic) [Compound 12] | 25 | ≥ 10 | –
3 | O=C1c2cc(COc3ccccc3)nn2CCN1C1CCCC1 [Compound 7] | 48 | 0.195 | –
4 | O=C1c2cc(COc3ccccc3)nn2CCN1CC1CC(F)(F)C1 [Compound 32] | – | – | Emax (%) (human mGluR5; H10H cell-line, maximum % effect as percent of response to maximally effective glutamate, glutamate EC20 present): 73%; pEC50 (human mGluR5; [3]): 6.19
5 | O=C1c2cc(COc3ccccc3)nn2CCN1C1CCC1 [Compound 9] | 29 | 0.324 | –
6 | CC1(C)CCC(N2CCn3nc(COc4ccccc4)cc3C2=O)CC1 [Compound 16] | 71 | 0.0977 | –
7 | O=C1c2cc(COc3ccccc3)nn2CCN1[C@H]1CCCNC1 [Compound 33] | – | > 30.2 | Emax (human mGluR5): 19%
8 | O=C1c2cc(COc3ccccc3)nn2CCN1C1CCCCC1 [Compound 13, 5-cyclohexyl-2-(phenoxymethyl)-6,7-dihydropyrazolo[1,5-a]pyrazin-4(5H)-one] | 58 | 0.145 | –
9 | O=C1c2cc(COc3ccccc3)nn2CCN1C1Cc2ccccc2C1 [Compound 17] | 77 | 0.0589 | –
10 | O=C1c2cc(COc3ccccc3)nn2CCN1C[C@@H]1CC1(F)F [Compound 2, (S)-5-((2,2-difluorocyclopropyl)methyl)-2-(phenoxymethyl)-6,7-dihydropyrazolo[1,5-a]pyrazin-4(5H)-one] | 65 | 0.38 | –
11 | O=C1c2cc(COc3ccccc3)nn2CCN1C[C@H]1CC1(F)F [Compound 1, (R)-5-((2,2-difluorocyclopropyl)methyl)-2-(phenoxymethyl)-6,7-dihydropyrazolo[1,5-a]pyrazin-4(5H)-one] | 55 | 0.234 | reversal of amphetamine-induced hyperlocomotion [1]: effective in reducing amphetamine-induced hyperlocomotion
12 | O=C1c2cc(COc3ccccc3)nn2CCN1CC1CC1(F)F (stereo in doubt) [Compound 2, (S)-5-((2,2-difluorocyclopropyl)methyl)-2-(phenoxymethyl)-6,7-dihydropyrazolo[1,5-a]pyrazin-4(5H)-one] | – | – | reversal of amphetamine-induced hyperlocomotion [1]: effective in reducing amphetamine-induced hyperlocomotion
13 | C[C@@H]1Cn2nc(COc3ccccc3)cc2C(=O)N1CC1CCC1 [Compound 6] | 76 | 0.0912 | –
14 | O=C1c2cc(COc3ccccc3)nn2CCN1C1CCCOC1 (racemic) [Compound 20] | 52 | ≥ 10 | –

Continued, in another order:

Row | Emax (human mGluR5; [2]) [%] | EC50 (human mGluR5; [3]) [µM] | SMILES | other results
15 | 59 | 0.38 | O=C1c2cc(COc3ccccc3)nn2CCCN1CC1CC1 [Compound 22, 5-(cyclopropylmethyl)-2-(phenoxymethyl)-5,6,7,8-tetrahydro-4H-pyrazolo[1,5-a][1,4]diazepin-4-one] | melting point: 126.4 °C
16 | 46 | ≥ 10 | O=C1c2cc(COc3ccccc3)nn2CCN1C1CCOCC1 [Compound 11] | –
17 | 22 | > 30.2 | O=C1c2cc(COc3ccccc3)nn2CCN1C1CCNCC1 [Compound 37] | –
18 | 58 | 0.389 | O=C1c2cc(COc3ccccc3)nn2CCCN1CC1CC1(F)F (racemic) [Compound 25] | melting point: 102.2 °C
19 | 72 | 0.646 | O=C1c2cc(COc3ccccc3)nn2CCN1CC1CC(F)(F)C1 [Compound 10] | –
20 | 38 | ≥ 10 | CC1(C)CN(CC2CC2)C(=O)c2cc(COc3ccccc3)nn2C1 [Compound 24] | melting point: 96.5 °C
21 | 30 | > 10 | O=C1c2cc(COc3ccccc3)nn2CCN1C1COC1 [Compound 8] | –
22 | 51 | 0.158 | O=C1c2cc(COc3cccc(F)c3)nn2CCN1C[C@H]1CC1(F)F [Compound 14, (R)-5-((2,2-difluorocyclopropyl)methyl)-2-((3-fluorophenoxy)methyl)-6,7-dihydropyrazolo[1,5-a]pyrazin-4(5H)-one] | –
23 | 65 | 0.11 | O=C1c2cc(COc3cccc(F)c3)nn2CCN1C[C@@H]1CC1(F)F [Compound 21] | –
24 | 79 | 0.0525 | O=C1c2cc(COc3ccccc3)nn2CCN1CC1CCCCC1 [Compound 18] | –
25 | 72 | 0.871 | C[C@@H]1Cn2nc(COc3ccccc3)cc2C(=O)N1CC1CC1(F)F (stereo partly shown) [Compound 4] | –
26 | 24 | > 30.2 | O=C1c2cc(COc3ccccc3)nn2CCN1[C@H]1CCNC1 [Compound 34] | –
27 | 30 | > 30.2 | CC1CN(CC2CC2)C(=O)c2cc(COc3ccccc3)nn2C1 (stereo not shown) [Compound 28] | melting point: 67.4 °C
28 | 57 | 0.398 | CC1CCn2nc(COc3ccccc3)cc2C(=O)N1CC1CC1 (stereo not shown) [Compound 23] | melting point: 68.6 °C

— patent US20130345204A1, “SUBSTITUTED BICYCLIC CYCLOALKYL PYRAZOLE LACTAM ANALOGS AS ALLOSTERIC MODULATORS OF MGLUR5 RECEPTORS” (Vanderbilt University, priority 2012, published 2013)
